The subject of data set [1] is Hep3B hepatocellular carcinoma cells. Description: MTT cell viability assay, Hep3B. It is filed as cell-based. The settings on record: for effect of inhibitor alone on cancer viability: CPZ 2.5 to 10 μg/ml, nystatin 5 to 30 μM; for effect of inhibitor pretreatment on the anti-cancer effect of Hypo-Exo: pretreatment with endocytosis inhibitor, then Hypo-Exo. From the text:
(§1) Based on preliminary research, we hypothesized that under duress, cells and cell lines might generate exosomes that are deleterious specifically to malignant cells and tissue. We also speculated that exosomes could be loaded with specific microRNA (mi-RNA) that might further enhance anti-cancer activity and specificity. We initiated studies with human cerebral endothelial cells (HCEC) because […], endothelial cells would be able to release exosomes directly into the systemic circulation where they could travel to cancer sites. The initial mechanism of cellular stress we chose for the HCEC cells was oxygen-glucose deprivation (OGD). HCEC cells were exposed to OGD deprivation for a period of four hours and then exosomes were harvested and purified (See methods). HCEC cells exposed to OGD deprivation for longer than four hours started to lose viability. The “4 h-OGD-exosomes” were then tested for their effect on the viability of hepatocellular cancer cell lines, HepG2 and Hep3B, and on the benign liver cell line, THLE-2. To assay the cell viability of target cells, we used the MTT (3-(4,5-Dimethylthiazol-2-yl)-2,5-diphenyltetrazolium bromide) assay (See Methods). All cancer lines used in all of the studies are outlined in Table 1.
(§2) Cells were cultured in medium with indicated treatment.
For orientation: Tetrazolium dyes change colour on reduction, which living cells bring about.

Data set [2] relates to HepG2 hepatocellular carcinoma cells. Kind of data set: MTT cell viability assay, HepG2. It is filed as cell-based. The settings on record: for effect of inhibitor alone on cancer viability: CPZ 2.5 to 10 μg/ml, nystatin 5 to 30 μM.
Description: as §1, §2

The test system of data set [3] is hepatitis B-related HCC patients. The settings on record: treatment group, advanced stage patients; cited from earlier work.
Data set [4] has as its system primary liver cancer cells taken from patients. Description: Viability of primary liver cancer cells from HCC patients.
Description: Exosomes were tested against primary liver cancer cells taken from the patient's tumor as well as non-malignant, normal liver cells taken from a distant site in the explant liver away from the tumor. OGD-Exo were tested along with HCEC-m214-Exo and also with the chemotherapeutic agents, oxaliplatin and Sorafenib. […] OGD-Exo were used at a dose of 10^8 p/ml to avoid excessive killing with OGD-Exo alone. Exosomes were tested against patient 11 (Pt.011) and patient 12 (Pt.012).
3-(4,5-dimethylthiazol-2-yl)-2,5 diplenyltetrazolium bromide (MTT) assay: To measure cell viability, cells were seeded in 96-well plates at a density of 800 cells per well. Cells were cultured in medium with indicated treatment. After 5 days of treatment, medium was removed and MTT was added to each well with an additional 4 hr incubation to allow mitochondrial dehydrogenase to convert MTT into insoluble formazan crystals. The absorption of solubilized formazan was measured at a wavelength of 490 nm by an ELISA plate reader (EL340 microplate reader; Bio-Tek Instruments, Winooske, VT).
Another data set deals with HCC patients. The settings on record: study of 600 patients; cited from earlier work.
Data set [5] concerns benign THLE-2 liver cell line. Description: MTT cell viability assay, THLE-2. Type of data set: cell-based. Conditions: benign liver cells.
Description: as §1, §2

Structures are written as SMILES. Entries after “also recorded” stand apart in the source; their conditions may differ.

Broadly, the viability is a read-out of living cells in per cent, often relative to untreated cells. A lower viability goes with a greater loss of cells.

For the compound `CN(C)CCCN1c2ccccc2Sc2ccc(Cl)cc21` [CPZ, chlorpromazine], the “effect of inhibitor alone on cancer viability” value (“effect of inhibitor alone” for short) in data set [1] and in data set [2] was “did not affect cancer viability” in each case. Moreover, the “effect of inhibitor pretreatment on the anti-cancer effect of Hypo-Exo” value is listed as “significantly attenuated the anti-cancer effect of Hypo-Exo” in data set [1] and “significantly attenuated the anti-cancer effect of Hypo-Exo; also recorded: blunt the anti-tumor effect of Hypo-Exo” in data set [2] (pretreatment with endocytosis inhibitor, then Hypo-Exo).

`CNC(=O)c1cc(Oc2ccc(NC(=O)Nc3ccc(Cl)c(C(F)(F)F)c3)cc2)ccn1` [Sorafenib] showed a viability at 0.8 µM in data set [1] (Homo sapiens, Hep3B, Hypo-Exo 10^8 p/ml, Sorafenib 0.8 µM) of 80.5%. Also, the median overall survival in data set [3] is given as 6.5 months. In data set [4] (Homo sapiens, read-out: decrease in viability of primary liver cancer cells), the cytotoxicity at 1.2 µM was in the range of 42 to 44%. Further, the increase in survival entry in the data set with HCC patients is reported as “three”. Besides, in data set [5], the “effect on cell viability” value is given as “negligible impact”. The compound further returned a viability at 1.2 µM in data set [2] (Homo sapiens, HepG2, Hypo-Exo 10^8 p/ml, Sorafenib 1.2 μM) of 67.4%.

Consider `C[C@@H]1[C@H](O)[C@@H](C)/C=C/C=C/CC/C=C/C=C/C=C/C=C/C(O[C@H]2O[C@H](C)[C@@H](O)[C@H](N)[C@@H]2O)CC2O[C@](O)(CC(O)C(O)CCC(O)CC(O)CC(O)CC(=O)O[C@H]1C)CC(O)C2C(=O)O` (some centres unmarked) [nystatin], for which, in data set [1], the “effect of inhibitor alone” value was “did not affect cancer viability” and the “effect of inhibitor pretreatment on the anti-cancer effect of Hypo-Exo” value was “significantly diminished the anti-cancer effect of Hypo-Exo; also recorded: blunts the effect of Hypo-Exo”. Besides, the “effect of inhibitor alone” value in data set [2] is “did not affect cancer viability”.

With `O=C1[O][Pt]2([NH][C@@H]3CCCC[C@H]3[NH]2)[O]C1=O` [oxaliplatin], the “decrease in viability of primary liver cancer cells” value in data set [4] (OGD-Exo 10^8 p/ml, oxaliplatin 0.06125 µM, Sorafenib 1.20 μM, Pt.011 and Pt.012) is “approximately 20%”.

The record behind these values is patent US20260240915A1, “USE OF EXTRACELLULAR VESICLES FOR THE TREATMENT OF CANCER” (HENRY FORD HEALTH SYSTEM, priority 2023, published 2026).
